Earlier results in patent US20240066056A1, “Formulations of a Prophylactic Nasal Spray and Methods of Use and Manufacture Thereof” (priority 2020, published 2024).

Legend:
[1] = test system: SARS-CoV-2; details: within 30 seconds of contact
[2] = test system: bacteria; details: after an application of povidone-iodine
[3] = cold and mild-warm water and alcohol

## Povidone-iodine [PVP-I]
[1]
  virus killed (in vitro virucidal activity): 99.99%
[2]
  duration of bactericidal action after application: up to eight
[3]
  solubility: soluble in cold and mild-warm water and alcohol
